Here are results for two compounds from ChEMBL document CHEMBL4325829, “Design and Synthesis of Tubulin and Histone Deacetylase Inhibitor Based on iso-Combretastatin A-4” (J Med Chem, 2018).

SMILES strings stand for the structures. The source made the active and inactive calls. The calls are words filed in the database; no cut-off is given here.

The species named for assay [1] is Homo sapiens. Briefly: Induction of cell cycle arrest in human BL2 cells assessed as accumulation at G2/M phase after 24 hrs by propidium iodide-staining based flow cytometry. It is filed as functional. On the technique in general: Flow cytometry measures light scatter and fluorescence of single cells or particles in a stream.
Assay [2] addresses T1, Protein deacetylase HDAC6 (Homo sapiens) (UniProt Q9UBN7).
T1 sequence (whole entry): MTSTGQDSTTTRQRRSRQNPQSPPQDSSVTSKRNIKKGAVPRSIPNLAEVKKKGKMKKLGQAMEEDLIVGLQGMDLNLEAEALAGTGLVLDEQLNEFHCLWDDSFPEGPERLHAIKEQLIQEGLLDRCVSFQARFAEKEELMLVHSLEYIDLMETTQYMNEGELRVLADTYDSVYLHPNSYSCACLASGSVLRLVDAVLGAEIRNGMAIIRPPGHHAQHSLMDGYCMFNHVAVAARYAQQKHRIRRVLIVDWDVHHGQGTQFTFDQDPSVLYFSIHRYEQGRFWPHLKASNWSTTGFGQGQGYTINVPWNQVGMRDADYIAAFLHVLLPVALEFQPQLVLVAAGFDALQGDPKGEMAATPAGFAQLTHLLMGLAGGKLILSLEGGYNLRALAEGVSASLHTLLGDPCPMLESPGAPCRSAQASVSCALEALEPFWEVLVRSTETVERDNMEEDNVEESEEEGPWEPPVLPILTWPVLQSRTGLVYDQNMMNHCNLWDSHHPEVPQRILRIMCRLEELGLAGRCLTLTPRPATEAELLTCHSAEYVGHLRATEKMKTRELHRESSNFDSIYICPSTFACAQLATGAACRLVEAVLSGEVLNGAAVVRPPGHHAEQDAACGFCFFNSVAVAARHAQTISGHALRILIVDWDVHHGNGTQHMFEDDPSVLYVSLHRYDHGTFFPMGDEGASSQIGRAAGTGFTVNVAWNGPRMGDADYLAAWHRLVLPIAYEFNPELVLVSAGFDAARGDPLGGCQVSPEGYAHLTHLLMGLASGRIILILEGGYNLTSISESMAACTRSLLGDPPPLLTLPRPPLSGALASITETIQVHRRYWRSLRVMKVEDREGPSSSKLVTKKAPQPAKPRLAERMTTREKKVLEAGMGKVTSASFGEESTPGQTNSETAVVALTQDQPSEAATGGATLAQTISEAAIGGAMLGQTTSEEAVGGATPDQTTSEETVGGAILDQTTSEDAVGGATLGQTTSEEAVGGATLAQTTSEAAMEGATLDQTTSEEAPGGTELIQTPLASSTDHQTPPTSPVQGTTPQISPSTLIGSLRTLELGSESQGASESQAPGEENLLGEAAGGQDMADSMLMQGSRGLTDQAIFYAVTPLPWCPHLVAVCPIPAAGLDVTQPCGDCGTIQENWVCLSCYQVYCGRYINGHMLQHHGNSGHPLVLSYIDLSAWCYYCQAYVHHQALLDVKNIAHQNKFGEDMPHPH
Briefly: Inhibition of HDAC6 in human HT-29 cells assessed as acetylated alpha-tubulin levels at 25 uM after 6 hrs by Western blot analysis relative to control. The assay is classed as cell-based. (A western blot detects proteins with antibodies after separation by electrophoresis.)

The test system of assay [3] is HCT-116. Briefly: Induction of cell cycle arrest in human HCT116 cells assessed as accumulation at G2/M phase at 5 to 10 nM after 24 hrs by propidium iodide-staining based flow cytometry. It is filed as functional.
Assay [4] relates to K562. The assay is described as follows: Induction of cell cycle arrest in human K562 cells assessed as accumulation at G2/M phase at 5 to 10 nM after 24 hrs by propidium iodide-staining based flow cytometry. The assay is classed as functional.
Assay [5] has as its system U-87 MG. Briefly: Potency index, ratio of IC50 for TSA to IC50 for test compound for antiproliferative activity against human U87 cells after 72 hrs by MTS assay. The assay is classed as functional, U-87MG ATCC. For orientation: Tetrazolium assays rely on reduction of a dye to a coloured formazan, in cell work by metabolically active cells.
The target in assay [6] is T1, Protein deacetylase HDAC6 (Homo sapiens). Briefly: Inhibition of HDAC6 in human HT-29 cells assessed as acetylated alpha-tubulin levels at 25 uM after 24 hrs by Western blot analysis relative to control. It is filed as cell-based.
The target of assay [7] is T2, Histone deacetylase 8 (Homo sapiens) (UniProt Q9BY41).
T2 sequence (whole entry): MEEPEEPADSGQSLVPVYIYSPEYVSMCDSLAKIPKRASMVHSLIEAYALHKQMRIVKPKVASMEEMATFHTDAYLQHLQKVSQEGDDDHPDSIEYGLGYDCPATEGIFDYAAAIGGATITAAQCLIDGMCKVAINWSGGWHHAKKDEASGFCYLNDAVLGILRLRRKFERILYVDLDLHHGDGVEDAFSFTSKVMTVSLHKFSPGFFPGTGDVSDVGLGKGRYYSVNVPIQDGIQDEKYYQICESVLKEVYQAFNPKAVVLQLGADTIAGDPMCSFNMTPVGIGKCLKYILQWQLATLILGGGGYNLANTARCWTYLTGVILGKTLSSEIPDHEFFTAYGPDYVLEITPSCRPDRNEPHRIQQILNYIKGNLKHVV
Briefly: Inhibition of HDAC8 in human HT-29 cells assessed as acetylated SMC3 levels at 25 uM after 24 hrs by Western blot analysis relative to control. The assay is classed as cell-based.

Assay [8] deals with HT-29. Briefly: Potency index, ratio of IC50 for isoCA4 to IC50 for test compound for antiproliferative activity against human HT-29 cells after 72 hrs by MTS assay. The assay is classed as functional.
For assay [9], the target named is Histone deacetylase (Homo sapiens) (UniProt Q13547+O15379+Q9UBN7+Q92769+Q9UQL6+Q8WUI4+Q9BY41+Q96DB2+P56524+Q9UKV0+Q969S8). Briefly: Inhibition of HDAC in human HT-29 cells assessed as phosphorylated gamma-H2AX levels at 80 nM after 3 days by Western blot analysis relative to control. The assay is classed as cell-based.
Assay [10] deals with K-562R. The assay is described as follows: Potency index, ratio of IC50 for TSA to IC50 for test compound for antiproliferative activity against human K562R cells after 72 hrs by MTS assay. The assay is classed as functional.
In assay [11] the target is Tubulin (Homo sapiens) (UniProt P68371+Q9H4B7+P0DPH7+P68366+Q13509+Q71U36+P04350+Q3ZCM7+P07437+P68363+Q9BQE3+Q6PEY2+Q13885+Q9BVA1+Q9BUF5). The assay is described as follows: Inhibition of tubulin polymerization in human K562 cells assessed as multinucleation at 10 nM after 24 hrs by DAPI-staining based inverted microscopy. It is filed as cell-based.
Assay [12] has as its system U-87 MG. Briefly: Potency index, ratio of IC50 for isoCA4 to IC50 for test compound for antiproliferative activity against human U87 cells after 72 hrs by MTS assay. It is filed as functional, U-87MG ATCC.
The target of assay [13] is T3, Protein deacetylase HDAC6 (Homo sapiens, UniProt Q9UBN7).
T3 sequence (Q9UBN7 whole entry): T1 sequence (whole entry)
Description: Inhibition of human recombinant HDAC6 after 30 mins using fluorogenic substrate by fluorimetric assay

The target in assay [14] is T4, Histone deacetylase 8 (Homo sapiens, UniProt Q9BY41).
T4 sequence (Q9BY41 whole entry): T2 sequence (whole entry)
Briefly: Inhibition of human recombinant HDAC8 after 30 mins using fluorogenic substrate by fluorimetric assay.

Consider `C=C(c1ccc(OC)c(/C=C/C(=O)NO)c1)c1cc(OC)c(OC)c(OC)c1`, for which the result in assay [1], in [3], in assay [4] and in assay [11] was Active. Also, the fold change (FC) stood at 0.4 in assay [2], 0.5 in assay [6], 5.4 in assay [7] and 14.2 in assay [9]. Further, the “Ratio IC50” value in [5] worked out at 650; in [8], 135; in assay [10], 60; in assay [12] it was 5.

In the case of `C=C(c1ccc(OC)c(O)c1)c1cc(OC)c(OC)c(OC)c1`, the IC50 result in assay [13] and in assay [14] was “Not Active” each time.
